# Laboratory results from ChEMBL document CHEMBL4400537, “Virtual Screening Identifies Irreversible FMS-like Tyrosine Kinase 3 Inhibitors with Activity toward Resistance-Conferring Mutations” (J Med Chem, 2019).
# Calls of active or inactive are those of the source. The rule behind the calls is not given here.
# Assays:
# MV4-11 [1] = assay: Cytotoxicity in human MV4-11 cells assessed as induction of cell death at 10 uM incubated for 72 hrs by CellTiter-Blue assay; assay type: functional
# MV4-11 [2] = assay: cells; settings: Homo sapiens, MV4-11, 72 h
# [3] = target: Platelet-derived growth factor receptor beta (Homo sapiens) (UniProt P09619); assay: Inhibition of full length human N-terminal GST-tagged PDGFRbeta expressed in baculovirus expression system at 100 nM relative to control
# [4] = target: T1, Receptor-type tyrosine-protein kinase FLT3 (Homo sapiens, UniProt P36888)
# [5] = target: Tyrosine-protein kinase Lck (Homo sapiens) (UniProt P06239); assay: Inhibition of full length human N-terminal 6His-tagged LCK expressed in baculovirus expression system at 100 nM relative to control
# [6] = target: Glycogen synthase kinase-3 alpha (Homo sapiens) (UniProt P49840); assay: Inhibition of human N-terminal His-tagged GSK3alpha expressed in baculovirus expression system assessed as residual activity at 100 nM relative to control
# Glycogen synthase kinase-3 alpha (Homo sapiens), sequence (P49840 2-483 limits assumed): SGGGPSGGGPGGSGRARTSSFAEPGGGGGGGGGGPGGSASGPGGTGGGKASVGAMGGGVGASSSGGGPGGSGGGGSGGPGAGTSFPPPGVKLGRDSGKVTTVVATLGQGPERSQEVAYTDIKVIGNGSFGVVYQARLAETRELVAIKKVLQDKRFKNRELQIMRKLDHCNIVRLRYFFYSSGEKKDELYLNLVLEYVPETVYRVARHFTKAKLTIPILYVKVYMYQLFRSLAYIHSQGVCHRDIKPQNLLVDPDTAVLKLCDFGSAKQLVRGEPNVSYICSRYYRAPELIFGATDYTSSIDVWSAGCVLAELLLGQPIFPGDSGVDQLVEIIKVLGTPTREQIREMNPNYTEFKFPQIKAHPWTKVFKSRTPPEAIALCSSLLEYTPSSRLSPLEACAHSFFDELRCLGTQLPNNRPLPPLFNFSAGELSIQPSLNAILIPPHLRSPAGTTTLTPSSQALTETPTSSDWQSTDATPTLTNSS
# [7] = target: Receptor-type tyrosine-protein kinase FLT3 (Homo sapiens) (UniProt P36888); assay: Inhibition of human N-terminal GST-tagged FLT3 expressed in baculovirus expression system at 100 nM relative to control
# [8] = target: Tyrosine-protein kinase Lyn (Homo sapiens) (UniProt P07948); assay: Inhibition of full length human N-terminal 6His-tagged LYN expressed in baculovirus expression system at 100 nM relative to control
# Tyrosine-protein kinase Lyn (Homo sapiens), sequence (P07948 2-512 limits assumed): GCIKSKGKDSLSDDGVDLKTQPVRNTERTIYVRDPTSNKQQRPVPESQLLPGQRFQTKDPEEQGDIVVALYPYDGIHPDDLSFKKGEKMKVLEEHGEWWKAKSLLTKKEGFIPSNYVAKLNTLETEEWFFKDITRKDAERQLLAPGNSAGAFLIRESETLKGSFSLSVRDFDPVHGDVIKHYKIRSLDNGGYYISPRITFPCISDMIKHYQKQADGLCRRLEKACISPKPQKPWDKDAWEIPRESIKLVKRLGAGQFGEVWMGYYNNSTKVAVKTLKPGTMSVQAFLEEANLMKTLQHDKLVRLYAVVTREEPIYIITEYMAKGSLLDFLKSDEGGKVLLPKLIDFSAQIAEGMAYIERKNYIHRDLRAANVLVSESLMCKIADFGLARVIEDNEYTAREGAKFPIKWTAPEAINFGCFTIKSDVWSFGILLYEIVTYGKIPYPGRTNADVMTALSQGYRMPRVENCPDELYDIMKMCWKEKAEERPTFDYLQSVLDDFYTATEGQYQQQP
# [9] = target: T1, Receptor-type tyrosine-protein kinase FLT3; assay: Binding affinity to auto-inhibited form of wild type human N-terminal GST-tagged FLT3 expressed in baculovirus expression
# [10] = tested on: T2, Receptor-type tyrosine-protein kinase FLT3 (Homo sapiens), P36888 [D835Y]; assay: Inhibition of human FLT3 D835Y mutant expressed in baculovirus expression system at 100 nM relative to control
# T2 sequence (whole entry): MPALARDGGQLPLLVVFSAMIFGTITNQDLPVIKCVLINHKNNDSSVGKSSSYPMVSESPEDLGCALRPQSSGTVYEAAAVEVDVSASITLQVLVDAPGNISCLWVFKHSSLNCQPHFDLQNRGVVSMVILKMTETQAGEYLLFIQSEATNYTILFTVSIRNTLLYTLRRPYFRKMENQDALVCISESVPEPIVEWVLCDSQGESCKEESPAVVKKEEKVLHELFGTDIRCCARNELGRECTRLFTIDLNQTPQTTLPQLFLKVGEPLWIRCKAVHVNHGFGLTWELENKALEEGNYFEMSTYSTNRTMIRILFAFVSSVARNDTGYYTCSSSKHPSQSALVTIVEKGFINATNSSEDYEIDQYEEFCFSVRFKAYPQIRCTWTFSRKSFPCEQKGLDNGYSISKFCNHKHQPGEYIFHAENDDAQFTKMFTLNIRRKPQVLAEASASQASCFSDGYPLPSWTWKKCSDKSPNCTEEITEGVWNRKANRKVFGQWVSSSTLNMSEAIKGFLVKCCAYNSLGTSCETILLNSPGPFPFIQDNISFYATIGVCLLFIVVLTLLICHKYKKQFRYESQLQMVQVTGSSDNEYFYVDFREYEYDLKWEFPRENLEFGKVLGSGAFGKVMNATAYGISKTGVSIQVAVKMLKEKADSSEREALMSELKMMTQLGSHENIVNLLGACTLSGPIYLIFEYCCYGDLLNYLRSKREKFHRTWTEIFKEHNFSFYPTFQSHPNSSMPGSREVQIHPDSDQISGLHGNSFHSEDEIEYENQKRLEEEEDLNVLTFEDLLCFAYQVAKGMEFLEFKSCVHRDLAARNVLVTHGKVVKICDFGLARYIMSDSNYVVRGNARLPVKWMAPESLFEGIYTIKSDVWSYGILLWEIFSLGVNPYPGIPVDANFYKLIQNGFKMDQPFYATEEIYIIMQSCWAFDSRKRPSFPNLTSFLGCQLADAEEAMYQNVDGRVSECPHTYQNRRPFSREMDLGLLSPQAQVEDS
# [11] = target: Receptor-type tyrosine-protein kinase FLT3 (Homo sapiens, UniProt P36888, D835Y); assay: Irreversible inhibition of recombinant human FLT3 D835Y mutant (571 to 993 residues) expressed in baculovirus expression system preincubated for 5 to 30 mins followed by myelobasic protein addition measured after 120 mins in presence of ATP by ADP-Glo assay
# MOLM-14 = assay: cells; settings: Homo sapiens, MOLM-14, 72 h
# [12] = target: Mitogen-activated protein kinase 3 (Homo sapiens) (UniProt P27361); assay: Inhibition of full length N-terminal GST-tagged human ERK1 expressed in baculovirus expression system assessed as residual activity at 100 nM relative to control
# [13] = target: Receptor-type tyrosine-protein kinase FLT3 (Homo sapiens, UniProt P36888, D835V/ITD)
# [14] = target: Proto-oncogene tyrosine-protein kinase receptor Ret (Homo sapiens) (UniProt P07949); assay: Inhibition of full length human N-terminal GST-tagged RET expressed in baculovirus expression system at 100 nM relative to control
# Proto-oncogene tyrosine-protein kinase receptor Ret (Homo sapiens), sequence (P07949 whole entry): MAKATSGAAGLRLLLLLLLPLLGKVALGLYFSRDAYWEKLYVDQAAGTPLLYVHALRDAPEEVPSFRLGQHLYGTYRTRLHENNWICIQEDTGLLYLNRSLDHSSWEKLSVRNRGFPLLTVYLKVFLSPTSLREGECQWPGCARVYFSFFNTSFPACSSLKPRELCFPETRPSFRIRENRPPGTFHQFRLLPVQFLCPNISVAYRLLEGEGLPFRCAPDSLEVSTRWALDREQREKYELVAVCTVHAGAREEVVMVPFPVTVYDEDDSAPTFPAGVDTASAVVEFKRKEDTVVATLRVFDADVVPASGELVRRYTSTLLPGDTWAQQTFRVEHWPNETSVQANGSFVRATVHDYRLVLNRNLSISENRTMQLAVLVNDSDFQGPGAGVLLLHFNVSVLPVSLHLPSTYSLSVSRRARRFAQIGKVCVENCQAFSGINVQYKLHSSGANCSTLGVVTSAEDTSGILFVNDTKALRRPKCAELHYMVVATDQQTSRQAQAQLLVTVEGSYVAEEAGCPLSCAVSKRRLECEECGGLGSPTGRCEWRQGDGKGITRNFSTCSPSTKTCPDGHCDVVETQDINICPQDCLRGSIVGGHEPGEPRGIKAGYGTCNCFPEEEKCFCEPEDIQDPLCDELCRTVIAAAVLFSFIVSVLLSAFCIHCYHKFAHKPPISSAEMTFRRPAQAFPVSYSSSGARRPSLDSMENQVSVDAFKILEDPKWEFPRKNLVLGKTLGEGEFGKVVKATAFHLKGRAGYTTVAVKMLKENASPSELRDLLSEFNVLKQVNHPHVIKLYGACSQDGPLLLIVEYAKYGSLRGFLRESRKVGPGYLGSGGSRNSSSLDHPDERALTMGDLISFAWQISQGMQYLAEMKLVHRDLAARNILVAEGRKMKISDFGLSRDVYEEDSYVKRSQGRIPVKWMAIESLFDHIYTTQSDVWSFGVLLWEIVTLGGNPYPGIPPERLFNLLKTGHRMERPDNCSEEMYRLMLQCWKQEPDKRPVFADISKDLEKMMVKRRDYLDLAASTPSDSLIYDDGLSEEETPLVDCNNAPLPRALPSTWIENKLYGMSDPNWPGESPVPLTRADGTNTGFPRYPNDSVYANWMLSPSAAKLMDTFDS
# [15] = target: Mast/stem cell growth factor receptor Kit (Homo sapiens) (UniProt P10721); assay: Inhibition of human N-terminal GST-tagged c-KIT expressed in baculovirus expression system at 100 nM relative to control
# Mast/stem cell growth factor receptor Kit (Homo sapiens), sequence (P10721 whole entry, the tested form may be a part): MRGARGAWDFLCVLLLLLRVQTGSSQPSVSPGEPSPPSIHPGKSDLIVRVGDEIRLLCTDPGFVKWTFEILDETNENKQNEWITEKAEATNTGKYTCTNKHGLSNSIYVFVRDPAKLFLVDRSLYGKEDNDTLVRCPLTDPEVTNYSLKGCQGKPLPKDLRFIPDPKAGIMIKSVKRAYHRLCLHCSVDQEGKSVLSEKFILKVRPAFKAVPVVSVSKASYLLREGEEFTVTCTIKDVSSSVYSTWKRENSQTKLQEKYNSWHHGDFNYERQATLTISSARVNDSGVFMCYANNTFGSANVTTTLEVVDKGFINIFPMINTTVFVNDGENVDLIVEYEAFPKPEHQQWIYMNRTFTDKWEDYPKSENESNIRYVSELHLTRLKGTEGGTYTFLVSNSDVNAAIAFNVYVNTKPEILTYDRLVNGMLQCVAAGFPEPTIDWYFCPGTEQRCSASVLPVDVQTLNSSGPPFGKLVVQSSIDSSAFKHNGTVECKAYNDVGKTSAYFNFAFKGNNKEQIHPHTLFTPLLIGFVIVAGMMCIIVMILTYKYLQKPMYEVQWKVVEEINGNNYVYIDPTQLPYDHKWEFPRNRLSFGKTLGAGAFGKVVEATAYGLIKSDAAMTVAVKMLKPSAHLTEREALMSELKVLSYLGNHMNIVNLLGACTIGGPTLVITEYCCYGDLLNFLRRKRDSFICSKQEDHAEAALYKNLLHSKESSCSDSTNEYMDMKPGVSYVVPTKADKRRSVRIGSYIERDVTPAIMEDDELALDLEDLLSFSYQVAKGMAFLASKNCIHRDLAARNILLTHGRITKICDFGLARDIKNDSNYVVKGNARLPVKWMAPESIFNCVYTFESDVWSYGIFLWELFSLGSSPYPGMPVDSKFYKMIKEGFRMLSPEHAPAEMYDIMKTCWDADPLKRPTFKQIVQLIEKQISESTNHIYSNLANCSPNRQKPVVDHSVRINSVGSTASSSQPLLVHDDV
# [16] = tested on: T2, Receptor-type tyrosine-protein kinase FLT3 (Homo sapiens), P36888 [D835Y]; assay: Inhibition of covalent binding of 100 uM (Z)-N-(2-(2-(4-(2,8-Diethyl-5,5-difluoro-1,3,7,9-tetramethyl-5H-4lambda4,5lambda4-dipyrrolo[1,2-c:2',1'-f ][1,3,2]diazaborinin-10-yl)phenoxy)-acetamido)ethyl)-2,4-dimethyl-5-((2-oxo-5-(vinylsulfon-amido)-indolin-3-ylidene)methyl)-1H-pyrrole-3-carboxamide to recombinant human FLT3 D835Y mutant (571 to 993 residues) expressed in baculovirus expression system at 100 uM by Western blot analysis
# [17] = target: Tyrosine-protein kinase receptor UFO (Homo sapiens) (UniProt P30530); assay: Inhibition of full length human N-terminal 6His-tagged AXL expressed in baculovirus expression system at 100 nM relative to control
# [18] = target: Receptor-type tyrosine-protein kinase FLT3 (Homo sapiens, UniProt P36888, ITD)
# [19] = target: Interleukin-1 receptor-associated kinase 1 (Homo sapiens) (UniProt P51617); assay: Inhibition of full length human N-terminal 6His-tagged IRAK1 expressed in baculovirus expression system at 100 nM relative to control
# [20] = target: Mitogen-activated protein kinase 1 (Homo sapiens) (UniProt P28482); assay: Inhibition of human N-terminal GST-tagged ERK2 (14 to 429 residues) expressed in baculovirus expression system assessed as residual activity at 100 nM relative to control
# Mitogen-activated protein kinase 1 (Homo sapiens), sequence (P28482 whole entry, the tested form may be a part): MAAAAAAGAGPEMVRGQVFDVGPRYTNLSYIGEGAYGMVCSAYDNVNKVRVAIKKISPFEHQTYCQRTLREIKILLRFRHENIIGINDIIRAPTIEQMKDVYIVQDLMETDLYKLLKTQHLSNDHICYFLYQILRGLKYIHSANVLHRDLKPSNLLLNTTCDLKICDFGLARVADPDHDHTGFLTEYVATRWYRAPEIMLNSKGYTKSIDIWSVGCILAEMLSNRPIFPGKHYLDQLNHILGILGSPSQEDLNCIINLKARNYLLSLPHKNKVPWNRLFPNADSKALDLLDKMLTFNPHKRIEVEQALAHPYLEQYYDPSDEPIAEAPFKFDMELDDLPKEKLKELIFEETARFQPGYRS
# [21] = tested on: T2, Receptor-type tyrosine-protein kinase FLT3 (Homo sapiens), P36888 [D835Y]; assay: Inhibition of recombinant human FLT3 D835Y mutant (571 to 993 residues) expressed in baculovirus expression system at 100 nM preincubated for 24 hrs in presence of 1000 fold glutathione followed by myelobasic protein addition and measured after 120 mins relative to control
# THP-1 = assay: cells; settings: Homo sapiens, THP-1, 72 h
# [22] = target: Receptor-type tyrosine-protein kinase FLT3 (Homo sapiens, UniProt P36888, D835H)
# Jurkat = assay: cells; settings: Homo sapiens, 72 h
# [23] = target: Platelet-derived growth factor receptor alpha (Homo sapiens) (UniProt P16234); assay: Inhibition of full length human N-terminal 6His-tagged PDGFRalpha expressed in baculovirus expression system at 100 nM relative to control
# Platelet-derived growth factor receptor alpha (Homo sapiens), sequence (P16234 whole entry, the tested form may be a part): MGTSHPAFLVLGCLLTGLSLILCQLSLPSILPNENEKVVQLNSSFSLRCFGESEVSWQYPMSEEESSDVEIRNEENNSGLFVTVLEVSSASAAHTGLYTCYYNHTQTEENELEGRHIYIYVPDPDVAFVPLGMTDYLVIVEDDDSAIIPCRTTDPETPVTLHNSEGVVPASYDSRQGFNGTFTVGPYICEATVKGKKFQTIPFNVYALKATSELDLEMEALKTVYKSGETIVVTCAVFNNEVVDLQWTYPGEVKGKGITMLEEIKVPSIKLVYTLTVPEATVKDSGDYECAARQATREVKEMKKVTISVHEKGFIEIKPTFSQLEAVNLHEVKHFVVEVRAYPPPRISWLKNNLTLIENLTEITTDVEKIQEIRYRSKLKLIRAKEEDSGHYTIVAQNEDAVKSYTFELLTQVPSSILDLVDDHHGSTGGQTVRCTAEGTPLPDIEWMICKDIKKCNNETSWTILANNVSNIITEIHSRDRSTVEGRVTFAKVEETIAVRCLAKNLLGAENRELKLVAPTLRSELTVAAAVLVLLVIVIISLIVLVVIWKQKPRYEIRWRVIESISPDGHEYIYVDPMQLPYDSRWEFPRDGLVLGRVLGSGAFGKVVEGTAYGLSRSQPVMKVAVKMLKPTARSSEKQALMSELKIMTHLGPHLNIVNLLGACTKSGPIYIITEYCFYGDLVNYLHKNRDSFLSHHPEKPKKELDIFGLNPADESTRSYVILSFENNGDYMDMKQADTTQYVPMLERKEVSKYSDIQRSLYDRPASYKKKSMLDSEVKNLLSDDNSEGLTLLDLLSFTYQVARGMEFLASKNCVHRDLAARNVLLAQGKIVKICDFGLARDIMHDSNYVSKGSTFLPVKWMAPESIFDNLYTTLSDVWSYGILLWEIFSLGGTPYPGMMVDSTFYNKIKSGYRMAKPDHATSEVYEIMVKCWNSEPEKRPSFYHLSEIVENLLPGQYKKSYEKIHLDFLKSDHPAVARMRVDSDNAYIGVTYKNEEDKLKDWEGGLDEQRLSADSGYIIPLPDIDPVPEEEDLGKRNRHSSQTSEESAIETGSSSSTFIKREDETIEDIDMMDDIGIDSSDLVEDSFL
# [24] = tested on: T2, Receptor-type tyrosine-protein kinase FLT3 (Homo sapiens), P36888 [D835Y]; assay: Inhibition of recombinant human FLT3 D835Y mutant (571 to 993 residues) expressed in baculovirus expression system at 100 nM preincubated for 30 mins in presence of 1000 fold glutathione followed by myelobasic protein addition and measured after 120 mins relative to control
# [25] = target: Glycogen synthase kinase-3 beta (Homo sapiens) (UniProt P49841); assay: Inhibition of human N-terminal His-tagged GSK3beta expressed in baculovirus expression system assessed as residual activity at 100 nM relative to control
# Glycogen synthase kinase-3 beta (Homo sapiens), sequence (P49841 whole entry, looked up): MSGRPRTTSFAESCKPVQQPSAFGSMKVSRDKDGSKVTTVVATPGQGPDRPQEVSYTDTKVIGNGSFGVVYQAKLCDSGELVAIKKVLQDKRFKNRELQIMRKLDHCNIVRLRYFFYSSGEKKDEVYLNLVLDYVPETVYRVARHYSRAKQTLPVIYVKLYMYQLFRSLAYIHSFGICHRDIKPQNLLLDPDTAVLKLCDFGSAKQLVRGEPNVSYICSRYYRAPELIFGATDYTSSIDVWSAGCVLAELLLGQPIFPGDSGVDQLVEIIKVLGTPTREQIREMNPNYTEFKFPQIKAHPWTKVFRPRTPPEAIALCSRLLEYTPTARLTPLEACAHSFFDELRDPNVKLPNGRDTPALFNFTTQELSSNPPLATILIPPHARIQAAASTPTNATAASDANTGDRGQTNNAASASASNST
compound,measurement,setting,value
Cc1cc(Nc2ccnc(Nc3ccccc3)n2)n[nH]1,Activity,MV4-11 [1],89%
same,IC50,MV4-11 [2],> 1 nM
C=CS(=O)(=O)Nc1ccc2c(c1)/C(=C/c1[nH]c(C)c(C(=O)NCCN(CC)CC)c1C)C(=O)N2,inhibition,[3],14%
same,Kd,[4],2.3 nM
same,inhibition,[5],81 to 93%
same,inhibition,[6],inactive
same,inhibition,[7],95%
same,inhibition,[8],81 to 93%
same,Kd,[9],65 nM
same,inhibition,[10],99%
same,Ki,[11],1.98 nM
same,IC50,MOLM-14,7.8 nM
same,inhibition,[12],inactive
same,IC50,MV4-11 [2],6 nM
same,Kd,[13],0.83 nM
same,inhibition,[14],96%
same,inhibition,[15],34%
same,inhibition,[16],28%
same,inhibition,[17],81 to 93%
same,Kd,[18],5.8 nM
same,inhibition,[19],81 to 93%
same,inhibition,[20],inactive
same,inhibition,[21],37%
same,IC50,THP-1,> 1000 nM
same,Kd,[22],1.3 nM
same,IC50,Jurkat,> 1000 nM
same,inhibition,[23],24%
same,inhibition,[24],68%
same,inhibition,[25],inactive
